We go through 1 molecule from patent US12599597B2, “Substituted N-benzhydrylacetamide inhibitors of jumanji domain histone demethylases for the treatment of cancer” (University of Kentucky Research Foundation, priority 2020, dated 2026).

What all share (experiment): Histone demethylase assay, purified enzyme panel
Holding throughout (assay type): biochemical
Common to all, as to settings: 58B1, 10 μM

The target in one test is T1, JMJD2A (KDM4A) (Homo sapiens, UniProt O75164).
T1 sequence (O75164 1-1064): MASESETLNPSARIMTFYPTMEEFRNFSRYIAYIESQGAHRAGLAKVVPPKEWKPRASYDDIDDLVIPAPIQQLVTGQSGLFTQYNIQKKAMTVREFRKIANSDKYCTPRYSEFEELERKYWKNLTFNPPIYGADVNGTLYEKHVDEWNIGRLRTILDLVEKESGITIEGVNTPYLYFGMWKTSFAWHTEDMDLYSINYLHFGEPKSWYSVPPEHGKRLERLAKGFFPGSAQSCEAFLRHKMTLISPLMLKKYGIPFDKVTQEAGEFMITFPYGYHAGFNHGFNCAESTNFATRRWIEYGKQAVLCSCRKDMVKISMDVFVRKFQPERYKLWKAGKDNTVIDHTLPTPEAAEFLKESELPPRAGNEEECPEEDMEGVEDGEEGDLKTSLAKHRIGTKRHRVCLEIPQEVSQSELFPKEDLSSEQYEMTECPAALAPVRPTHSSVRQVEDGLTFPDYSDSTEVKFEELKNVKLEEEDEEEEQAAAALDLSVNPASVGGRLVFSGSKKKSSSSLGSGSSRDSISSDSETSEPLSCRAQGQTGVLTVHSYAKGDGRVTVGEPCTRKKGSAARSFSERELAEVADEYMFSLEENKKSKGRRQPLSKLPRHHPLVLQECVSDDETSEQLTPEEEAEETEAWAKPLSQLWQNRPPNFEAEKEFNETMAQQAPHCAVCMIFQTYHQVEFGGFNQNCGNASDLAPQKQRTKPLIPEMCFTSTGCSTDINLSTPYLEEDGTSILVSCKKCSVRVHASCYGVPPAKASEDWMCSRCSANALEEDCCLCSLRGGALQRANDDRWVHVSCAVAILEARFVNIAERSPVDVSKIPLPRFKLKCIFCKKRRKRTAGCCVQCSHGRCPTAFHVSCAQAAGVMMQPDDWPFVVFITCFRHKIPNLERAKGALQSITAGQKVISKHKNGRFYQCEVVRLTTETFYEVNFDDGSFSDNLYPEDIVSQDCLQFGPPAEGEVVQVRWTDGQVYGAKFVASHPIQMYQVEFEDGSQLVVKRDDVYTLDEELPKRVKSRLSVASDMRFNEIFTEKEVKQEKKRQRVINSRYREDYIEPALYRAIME
From the text: (§1) Histone Demethylase Assay
(§2) To further examine the effects of 58B1 on histone demethylase, we screened a panel of purified histone demethylases was screened.

Another test deals with LSD1 (KDM1A) (Homo sapiens, UniProt O60341).
Text: as §1, §2

The target in a further test is T2, JMJD2C (KDM4C) (Homo sapiens, UniProt Q9H3R0).
T2 sequence (Q9H3R0 1-1056): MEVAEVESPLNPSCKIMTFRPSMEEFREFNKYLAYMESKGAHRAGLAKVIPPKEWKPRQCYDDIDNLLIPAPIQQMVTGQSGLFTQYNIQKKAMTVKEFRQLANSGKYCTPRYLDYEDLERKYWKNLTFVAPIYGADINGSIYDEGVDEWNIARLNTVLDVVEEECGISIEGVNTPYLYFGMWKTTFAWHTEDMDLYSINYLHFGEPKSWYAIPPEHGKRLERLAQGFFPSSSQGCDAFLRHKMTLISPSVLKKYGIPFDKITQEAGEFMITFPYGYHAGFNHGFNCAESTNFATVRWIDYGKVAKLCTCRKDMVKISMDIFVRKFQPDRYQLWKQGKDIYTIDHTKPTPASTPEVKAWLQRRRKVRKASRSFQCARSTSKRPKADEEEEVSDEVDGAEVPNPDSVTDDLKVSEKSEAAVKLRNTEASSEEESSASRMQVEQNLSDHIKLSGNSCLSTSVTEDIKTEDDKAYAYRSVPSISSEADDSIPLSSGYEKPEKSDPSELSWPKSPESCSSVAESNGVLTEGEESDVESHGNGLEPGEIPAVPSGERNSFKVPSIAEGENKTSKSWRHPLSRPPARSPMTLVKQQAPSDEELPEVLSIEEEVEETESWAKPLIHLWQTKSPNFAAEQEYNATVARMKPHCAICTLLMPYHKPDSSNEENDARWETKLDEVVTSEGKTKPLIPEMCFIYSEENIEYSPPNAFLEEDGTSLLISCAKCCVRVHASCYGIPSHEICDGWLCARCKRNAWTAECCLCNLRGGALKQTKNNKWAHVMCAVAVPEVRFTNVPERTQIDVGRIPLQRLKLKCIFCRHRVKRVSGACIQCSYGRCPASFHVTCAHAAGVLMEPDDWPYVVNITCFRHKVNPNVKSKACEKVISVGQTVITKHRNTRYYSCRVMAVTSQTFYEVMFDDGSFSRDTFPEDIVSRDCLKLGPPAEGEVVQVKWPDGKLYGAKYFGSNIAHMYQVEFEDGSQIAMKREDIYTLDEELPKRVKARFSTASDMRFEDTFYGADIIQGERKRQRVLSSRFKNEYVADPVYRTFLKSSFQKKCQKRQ
Text: as §1, §2

As to `CCCC(=O)NC(c1ccc(N(CC)CC)cc1)c1cc(Cl)c2cccnc2c1O` (stereo not drawn) [58B1], the inhibition at 10 µM at JMJD2A (KDM4A) is 64%; against LSD1 (KDM1A) it was 32%; on JMJD2C (KDM4C), 72%.

The inhibition is the drop in the measured response relative to a control, in per cent. A higher inhibition goes with strong suppression.
